Measured values from the supplement of paper PMC10627819.

Experiments:
[1] = system: S. pneumoniae D39V; assay: fitness (endpoint OD595 vs no drug) (fraction); higher = more growth
Outline: (§1)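 Plates with 384 wells were inoculated at OD595 0.01 using 30 µl of TSB, LB Lennox or CY, or 55 µl for S. pneumoniae. Incubation was at 37 °C, with OD595 measured every 30 min for 14 h. Fitness is the stationary-phase transition optical density over the robust mean of no-drug control wells, after first-reading background subtraction; it is capped at 1.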

[2] = system: S. aureus Newman; assay: as above
Outline: as §1

[3] = system: S. aureus DSM 20231; assay: as above
Outline: as §1

[4] = system: S. pneumoniae D39V; assay: Bliss interaction score (quartile over a dose matrix) (fitness difference); higher = more antagonism (negative = synergy)
Outline: (§2)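 Values were capped at 1 after dividing OD595 at stationary-phase entry by the plate's robust no-drug mean. This ratio is fitness, and single-drug fitness was inferred from the combination data. The Bliss score is observed minus product-expected fitness, given as quartiles over technical, biological and donor/recipient replicates.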

[5] = system: B. subtilis 168; assay: as above
Outline: as §2

[6] = system: S. aureus Newman; assay: as above
Outline: as §2

[7] = system: S. aureus DSM 20231; assay: as above
Outline: as §2

[8] = first compound 0.007 µg/mL, partner 0.125 µg/mL
[9] = first compound 0.014 µg/mL, partner 0.125 µg/mL
[10] = first compound 0.028 µg/mL, partner 0.125 µg/mL
[11] = first compound 0.125 µg/mL, partner 0.1875 µg/mL
[12] = first compound 0.125 µg/mL, partner 0.375 µg/mL
[13] = first compound 0.125 µg/mL, partner 0.75 µg/mL
[14] = first compound 0.25 µg/mL, partner 0.1875 µg/mL
[15] = first compound 0.25 µg/mL, partner 0.375 µg/mL
[16] = first compound 0.25 µg/mL, partner 0.75 µg/mL
[17] = first compound 0.5 µg/mL, partner 0.1875 µg/mL
[18] = first compound 0.5 µg/mL, partner 0.375 µg/mL
[19] = first compound 0.5 µg/mL, partner 0.75 µg/mL
[20] = first compound 0.125 µg/mL, partner 0.0075 µg/mL
[21] = first compound 0.125 µg/mL, partner 0.015 µg/mL
[22] = first compound 0.25 µg/mL, partner 0.0075 µg/mL
[23] = first compound 0.25 µg/mL, partner 0.015 µg/mL
[24] = first compound 0.5 µg/mL, partner 0.0075 µg/mL
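Wherever Bliss interaction score (quartile over a dose matrix) is given: first quartile when negative (synergy) and third quartile when positive (antagonism).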

CO/N=C(\C(=O)N[C@@H]1C(=O)N2C(C(=O)[O-])=C(C[N+]3(C)CCCC3)CS[C@H]12)c1csc(N)n1 [Cefepime] + CN[C@H](CC(C)C)C(=O)N[C@H]1C(=O)N[C@@H](CC(N)=O)C(=O)N[C@H]2C(=O)N[C@H]3C(=O)N[C@H](C(=O)N[C@H](C(=O)O)c4cc(O)cc(O)c4-c4cc3ccc4O)[C@H](O)c3ccc(c(Cl)c3)Oc3cc2cc(c3O[C@@H]2O[C@H](CO)[C@@H](O)[C@H](O)[C@H]2O[C@H]2C[C@](C)(N)[C@H](O)[C@H](C)O2)Oc2ccc(cc2Cl)[C@H]1O [Vancomycin]
fitness [1, 8]: 0.992
fitness ([1]; first compound 0.007 µg/mL, partner 0.25 µg/mL): 0.807
fitness ([1]; first compound 0.007 µg/mL, partner 0.5 µg/mL): 0.0222
fitness ([1]; first compound 0.0078 µg/mL, partner 0.03125 µg/mL): 0.977
fitness ([1]; first compound 0.0078 µg/mL, partner 0.0625 µg/mL): 0.884
fitness ([1]; first compound 0.0078 µg/mL, partner 0.125 µg/mL): 0.694
fitness [1, 9]: 0.944
fitness ([1]; first compound 0.014 µg/mL, partner 0.5 µg/mL): 0.029
fitness ([1]; first compound 0.0155 µg/mL, partner 0.03125 µg/mL): 0.879
fitness [1, 10]: 0.585
fitness ([1]; first compound 0.028 µg/mL, partner 0.5 µg/mL): 0.0343
fitness ([1]; first compound 0.031 µg/mL, partner 0.0625 µg/mL): 0.308
fitness ([1]; first compound 0.031 µg/mL, partner 0.125 µg/mL): 0.269
fitness [2, 11]: 0.945
fitness [2, 12]: 0.946
fitness [2, 13]: 0.922
fitness [2, 14]: 0.879
fitness [2, 15]: 0.867
fitness [2, 16]: 0.858
fitness [2, 17]: 0.791
fitness [2, 18]: 0.802
fitness [2, 19]: 0.774
fitness [3, 11]: 0.872
fitness [3, 12]: 0.868
fitness [3, 13]: 0.936
fitness [3, 14]: 0.917
fitness [3, 15]: 0.902
fitness [3, 16]: 0.885
fitness [3, 17]: 0.883
fitness [3, 18]: 0.864
fitness [3, 19]: 0.906
Bliss interaction score [4]: -0.121
Bliss interaction score [5]: -0.154
Bliss interaction score [6]: -0.0634
Bliss interaction score [7]: 0.0422

CO/N=C(\C(=O)N[C@@H]1C(=O)N2C(C(=O)[O-])=C(C[N+]3(C)CCCC3)CS[C@H]12)c1csc(N)n1 [Cefepime] + COc1c(N2C[C@@H]3CCCN[C@@H]3C2)c(F)cc2c(=O)c(C(=O)O)cn(C3CC3)c12 [Moxifloxacin]
fitness ([1]; first compound 0.007 µg/mL, partner 0.0312 µg/mL): 0.146
fitness ([1]; first compound 0.007 µg/mL, partner 0.0625 µg/mL): 0.0456
fitness [1, 8]: 0.0274
fitness ([1]; first compound 0.0078 µg/mL, partner 0.005 µg/mL): ≥ 1
fitness ([1]; first compound 0.0078 µg/mL, partner 0.01 µg/mL): 0.981
fitness ([1]; first compound 0.0078 µg/mL, partner 0.02 µg/mL): ≥ 1
fitness ([1]; first compound 0.014 µg/mL, partner 0.0312 µg/mL): 0.137
fitness ([1]; first compound 0.014 µg/mL, partner 0.0625 µg/mL): 0.0527
fitness [1, 9]: 0.0539
fitness ([1]; first compound 0.0155 µg/mL, partner 0.005 µg/mL): 0.987
fitness ([1]; first compound 0.0155 µg/mL, partner 0.01 µg/mL): 0.971
fitness ([1]; first compound 0.0155 µg/mL, partner 0.02 µg/mL): ≥ 1
fitness ([1]; first compound 0.028 µg/mL, partner 0.0312 µg/mL): 0.077
fitness ([1]; first compound 0.028 µg/mL, partner 0.0625 µg/mL): 0.0286
fitness [1, 10]: 0.0219
fitness ([1]; first compound 0.031 µg/mL, partner 0.02 µg/mL): 0.805
fitness [2, 20]: 0.748
fitness [2, 21]: 0.616
fitness [2, 22]: 0.738
fitness [2, 23]: 0.615
fitness [2, 24]: 0.695
fitness [3, 20]: 0.664
fitness [3, 21]: 0.681
fitness ([3]; first compound 0.125 µg/mL, partner 0.03 µg/mL): 0.616
fitness ([3]; first compound 0.125 µg/mL, partner 0.06 µg/mL, one replicate): 0.645
fitness ([3]; first compound 0.125 µg/mL, partner 0.12 µg/mL, one replicate): 0.469
fitness [3, 22]: 0.69
fitness [3, 23]: 0.682
fitness ([3]; first compound 0.25 µg/mL, partner 0.03 µg/mL): 0.592
fitness ([3]; first compound 0.25 µg/mL, partner 0.06 µg/mL, one replicate): 0.622
fitness ([3]; first compound 0.25 µg/mL, partner 0.12 µg/mL, one replicate): 0.521
fitness [3, 24]: 0.766
fitness ([3]; first compound 0.5 µg/mL, partner 0.015 µg/mL): 0.641
fitness ([3]; first compound 0.5 µg/mL, partner 0.03 µg/mL): 0.565
fitness ([3]; first compound 0.5 µg/mL, partner 0.06 µg/mL, one replicate): 0.579
fitness ([3]; first compound 0.5 µg/mL, partner 0.12 µg/mL, one replicate): 0.482
Bliss interaction score [4]: -0.0484
Bliss interaction score [5]: 0.0325
Bliss interaction score [6]: 0.0732
Bliss interaction score [7]: -0.101
